Laboratory results: PubChem BioAssay (NCI)
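In this assay, cells in 96-well plates receive the compound at five concentrations for 48 hours. Endpoints are linearly interpolated between the surrounding concentrations. At the TGI there is no net growth.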

Assays:
Assay in all cases: DTP human tumour cell line panel, 48 h
HCC-2998 colon = system: HCC-2998 colon
UO-31 renal = system: UO-31 renal
SN12C renal = system: SN12C renal
OVCAR-4 ovarian = system: OVCAR-4 ovarian
SK-MEL-5 melanoma = system: SK-MEL-5 melanoma
SF-539 CNS = system: SF-539 CNS
A498 renal = system: A498 renal
K-562 leukemia = system: K-562 leukemia
T-47D breast = system: T-47D breast
SK-MEL-2 melanoma = system: SK-MEL-2 melanoma

Row | Compound | TGI (HCC-2998 colon) [µM] | TGI (UO-31 renal) [µM] | TGI (SN12C renal) [µM] | TGI (OVCAR-4 ovarian) [µM] | TGI (SK-MEL-5 melanoma) [µM] | TGI (SF-539 CNS) [µM] | TGI (A498 renal) [µM] | TGI (K-562 leukemia) [µM] | TGI (T-47D breast) [µM] | TGI (SK-MEL-2 melanoma) [µM]
1 | Cc1nc2ccccc2c(=O)n1NC(=O)Cc1ccccc1 | > 100 | > 100 | > 100 | > 100 | > 100 | > 100 | > 100 | > 100 | > 100 | 
2 | Cc1nnc(N)nc1/C=C\c1cccs1 | 30.9 | 40.9 |  | 74.2 |  |  | 49.7 | 59.7 | > 100 | 30.5
3 | O=c1[nH]c(=O)n(C2CC(O)C(CO)O2)cc1NN=NCc1ccccc1 (stereo not drawn) |  | > 100 | > 100 | > 100 | > 100 |  |  | > 100 | > 100 | 
4 | O=C(c1ccc(Cl)cc1)N(C(=S)N1CCN(c2ccccn2)CC1)c1ccccc1 |  | > 100 | > 100 | > 100 | > 100 | > 100 |  | > 100 |  | > 100
5 | CCCCNC(=S)/N=C/c1c(O)c2ccccc2oc1=O | > 100 | > 100 | > 100 | > 100 | > 100 | > 100 |  |  | > 100 | > 100
6 | O=C(CCc1cc(O)cc(O)c1)NCCc1ccc(O)c(O)c1 | > 100 | > 100 | > 100 |  | > 100 | > 100 | > 100 |  | > 100 | > 100
7 | Cc1cc2nc3n(c2cc1C)C(c1c(F)cccc1F)SC3 (stereo not drawn) | 47.8 | > 10 | 41.9 | 62.2 | 28.2 | 38.2 |  | 63.9 | > 100 | 39.7
8 | O=C(NN=C1CCCCC1)Nc1ccccc1Cl | > 100 | > 100 | > 100 | > 100 | > 100 | > 100 |  | > 100 | > 100 | 91.7
9 | Cc1ccc(NC(=O)c2cccc([N+](=O)[O-])c2O)c(C)c1 | > 100 | 35.1 | > 100 | > 100 |  | 89.6 | 63.5 | > 100 |  | > 100
10 | O=C1C[C@H](c2ccccc2)C2(C(=O)c3ccccc3C2=O)[C@@H](c2ccccc2)C1 | > 100 | > 100 | > 100 | > 100 | 31 |  | > 100 | > 100 | > 100 | 69.3
11 | O=C1CCC2=C(CCC2)N1CCc1ccc2c(c1)OCO2 | > 100 | > 100 | > 100 | > 100 | > 100 | > 100 |  | > 100 | > 100 | > 100
12 | c1ccc(C(=NNc2nc3ccccc3[nH]2)c2ccccn2)nc1 | 28.6 | 1.78 |  | > 100 | 1.69 | 0.546 | 4.94 | > 100 | > 100 | > 100
13 | CC(O)(c1ccccc1)c1nccc2ccccc12 (stereo not drawn) | > 100 | > 100 | > 100 | > 100 | > 100 |  | > 100 | > 100 | > 100 | 
14 | COc1ccc(OC)c(CNc2ccc(O)c(C(=O)NCCc3ccc(F)cc3)c2)c1 | 8.98 | 24.8 | 71.9 | 66.2 | 19.9 | 35.7 | 59.9 | 19.1 |  | 26.4
15 | CCOC(=O)N(CC)c1c(C(F)(F)F)cc(-c2ccccc2)[nH]c1=O | > 100 | > 100 | > 100 | 94.8 | > 100 |  | > 100 | > 100 | > 100 | > 100
16 | Cc1cc(NC2=NCCO2)c2c(c1C)CCCC2 | 29 | 30.7 | 66.3 | > 100 | 31.5 | 22.6 | 49.8 |  | 76.5 | 
17 | CC[C@@]1(O)C(=O)OCc2c1cc1n(c2=O)Cc2c-1nc1ccccc1c2/C=N\NC(=O)C(N)CS (stereo partly drawn) | > 100 | 14.7 | > 22.8 | > 100 | 3.9 | 0.806 | 23 | > 100 |  | > 100
18 | O=C(Nc1ccc2ccccc2c1)Nn1cnnc1 | > 100 | > 100 |  | > 100 | > 100 | > 100 | > 100 | > 100 | > 100 | > 100
19 | CC(=O)c1ccc2c(c1)oc(=O)n2CCN(C)C |  |  |  |  |  | > 100 | > 100 |  |  | > 100
20 | Cc1cc(S(=O)(=O)O)ccc1N=Nc1ccc(N=Nc2c(O)ccc3ccccc23)c(C)c1 |  | > 100 | > 100 | > 100 | > 100 |  |  | > 100 | > 100 | > 100
21 | CN(N)C(=O)NCCCl | > 100 | > 100 | > 100 | > 100 | > 100 | > 100 | > 100 | > 100 |  | > 100
22 | O=C1Nc2ccccc2NC1C1OC(c2ccccc2)=CC1=O (stereo not drawn) | > 100 | > 100 |  | > 100 | > 100 | > 100 | > 100 | > 100 | > 100 | > 100
23 | [N-]=[N+]=C1CNC(=O)NC1=O | > 100 | > 100 | > 100 | > 100 | > 100 | > 100 |  | > 100 | > 100 | > 100
24 | CC(C)(C)OC(=O)NC(CCCCNC(=O)OCc1ccccc1)C(=O)NC(CCCCNC(=O)OCc1ccccc1)C(=O)ON1C(=O)CCC1=O (stereo not drawn) | > 100 | > 100 | > 100 |  | > 100 |  |  | > 100 | > 100 | > 100
25 | CC(=O)c1ccc(NC(=O)/C(=N\NC(N)=O)C(C#N)CC(C)(C)C=O)cc1 (stereo not drawn) | > 100 | > 100 | > 100 | > 100 | > 100 | > 100 | > 100 | > 100 |  | > 100
